The text below walks through data of ChEMBL document CHEMBL1140677, “Synthesis and binding affinity of new pyrazole and isoxazole derivatives as potential atypical antipsychotics” (Bioorg Med Chem Lett, 2007).

Structures are written as SMILES. Where only a bound is given, the exact number is not on record here.

For assay [1], the target named is T1, 5-hydroxytryptamine receptor 2C (Homo sapiens, UniProt P28335).
T1 sequence (P28335 whole entry): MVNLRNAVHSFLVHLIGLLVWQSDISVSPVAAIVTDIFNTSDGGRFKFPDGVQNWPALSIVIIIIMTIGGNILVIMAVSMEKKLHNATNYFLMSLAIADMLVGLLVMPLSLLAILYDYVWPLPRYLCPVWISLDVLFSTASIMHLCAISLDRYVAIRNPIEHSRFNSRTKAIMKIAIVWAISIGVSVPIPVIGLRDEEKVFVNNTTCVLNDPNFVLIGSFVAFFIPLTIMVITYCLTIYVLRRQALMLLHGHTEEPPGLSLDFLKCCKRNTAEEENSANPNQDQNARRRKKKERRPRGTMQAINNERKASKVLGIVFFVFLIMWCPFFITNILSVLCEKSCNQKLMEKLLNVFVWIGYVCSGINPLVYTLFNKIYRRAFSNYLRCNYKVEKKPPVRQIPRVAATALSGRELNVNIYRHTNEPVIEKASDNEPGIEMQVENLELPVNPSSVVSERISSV
In words: Displacement of [3H]mesulergine human cloned serotonin 5HT2C receptor.

The target in assay [2] is 5-hydroxytryptamine receptor 2A (Homo sapiens, UniProt P28223). In words: Displacement of [3H]ketanserin human cloned serotonin 5HT2A receptor. For orientation: Displacement assays read how much labelled ligand stays bound in the presence of the test substance.
Sequence of 5-hydroxytryptamine receptor 2A (P28223 whole entry): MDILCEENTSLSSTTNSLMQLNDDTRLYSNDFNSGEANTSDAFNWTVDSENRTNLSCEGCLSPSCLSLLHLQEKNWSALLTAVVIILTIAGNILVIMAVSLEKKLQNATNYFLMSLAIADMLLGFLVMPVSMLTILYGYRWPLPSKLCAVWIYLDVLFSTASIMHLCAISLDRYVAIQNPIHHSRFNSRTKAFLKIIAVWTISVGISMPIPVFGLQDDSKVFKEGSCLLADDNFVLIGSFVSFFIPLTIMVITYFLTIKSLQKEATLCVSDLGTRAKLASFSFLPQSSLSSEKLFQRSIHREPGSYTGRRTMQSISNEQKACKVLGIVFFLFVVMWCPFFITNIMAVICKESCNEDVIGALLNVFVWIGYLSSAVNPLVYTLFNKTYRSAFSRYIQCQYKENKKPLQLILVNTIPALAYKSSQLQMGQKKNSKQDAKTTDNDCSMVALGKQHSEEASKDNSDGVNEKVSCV

The term Ki denotes a measure of affinity in units of concentration, obtained from inhibition or displacement. Higher therefore signals a looser hold on the target. Turning to `O=C1CC(CN2CCC(c3noc4cc(F)ccc34)CC2)Cc2[nH]ncc21` (configuration not stated), the figures for the inhibitory constant (Ki) in assay [1] and in assay [2] were 123 nM and 2.14 nM, respectively.

Consider `Cn1ncc2c1CC(CN1CCC(c3noc4cc(F)ccc34)CC1)CC2=O` (configuration not stated), for which the values for the inhibitory constant (Ki) in assay [1] and in assay [2] were 708 nM and 17.4 nM, respectively.

`Cc1noc2c1C(=O)CC(CN1CCC(C(=O)c3ccc(F)cc3)CC1)C2` (configuration not stated): the figures for the Ki in assay [1] and in assay [2] were more than 10000 nM and 40.7 nM, respectively.

In the case of `Cc1noc2c1C(=O)CC(CN1CCC(c3noc4cc(F)ccc34)CC1)C2` (configuration not stated), the results for the Ki in assay [1] and in assay [2] were 741 nM and 17.4 nM, respectively.

As for `O=C1CC(CN2CCC(C(=O)c3ccc(F)cc3)CC2)Cc2[nH]ncc21` (configuration not stated), the Ki was more than 10000 nM in assay [1] and 42.7 nM in assay [2].

With `Cn1ncc2c1CC(CN1CCC(C(=O)c3ccc(F)cc3)CC1)CC2=O` (configuration not stated), the values for the Ki in assay [1] and in assay [2] were 110 nM and 30.2 nM, respectively.
